From PubChem BioAssay (NCI) come the findings set out here.

Several values for one entry are separate records, joined by “and”; a condition that tells them apart may be missing. Equal values may be shown once.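 Each compound was tested at five concentrations against cells in 96-well plates for 48 hours. GI50 = concentration required for 50% inhibition of growth. The concentration for full growth arrest is given as TGI.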

What all share (assay): NCI tumour cell line growth inhibition, 48 h
Test [1] deals with NCI-H23 lung.
For test [2], the system named is CAKI-1 renal.
For test [3], the system named is MALME-3M melanoma.
Test [4] concerns NCI-H226 lung.
Test [5] relates to PC-3 prostate.
Test [6] concerns MDA-MB-231 breast.
Test [7] relates to EKVX NSCLC.
For test [8], the system named is SF-268 CNS.
The subject of test [9] is OVCAR-5 ovarian.
Test [10] deals with HCT-15 colon.
The test system of test [11] is MCF7 breast.
Test [12] has as its system T-47D breast.
In test [13] the test system is MDA-N.
Test [14] relates to NCI-H522 lung.
In test [15] the test system is HOP-92 NSCLC.
In test [16] the test system is ACHN renal.
The test system of test [17] is HOP-62 NSCLC.
Test [18] relates to NCI-H460 lung.

In the case of `N=S(c1ccccc1[N+](=O)[O-])c1ccccc1[N+](=O)[O-]`, the TGI in test [1] was 6.77 µM and 11 µM; in [2], 4.19 µM and 12 µM; in test [3], 6.1 µM and 7.33 µM; in test [4], 12.3 µM and 30.1 µM; in test [5], 2.98 µM; in [6] it was 3.4 µM. The TGI in [7] is 11 µM and 20.8 µM; in test [8] it was 11.9 µM and 5.94 µM; in test [9] it was 7.69 µM and 11.8 µM; in test [10], 2.06 µM and 3.72 µM; in test [11], 0.266 µM; in [12], 0.934 µM. In addition, the TGI in [13] was 2.83 µM; in [14], 1.2 µM and 1.1 µM; in test [15], 4.02 µM and 4.39 µM; in test [16], 3.22 µM and 3.61 µM; in test [17], 8.51 µM and 10.8 µM; in test [18], 21.5 µM and 32 µM. The GI50 in test [4] is 12.6 µM; in [18], 7.83 µM and 14.4 µM.

For `CN(C)c1ccc(N=C2N=C(Nc3ccccc3)C(=Nc3ccccc3)S2)cc1`, the TGI in test [1], in [2], in test [3], in test [4], in test [5] and in test [6] was more than 100 µM throughout. Also, the TGI in [7], in test [8], in [9], in test [10], in [11] and in test [12] was more than 100 µM throughout. The TGI in [13], in [14], in [15], in [16], in test [17] and in test [18] was more than 100 µM in each case.

As to `O=C(/C=C/c1ccc([N+](=O)[O-])cc1)N1CCN(CCOC(c2ccc(F)cc2)c2ccc(F)cc2)CC1`, the TGI in [1], in [2], in test [3], in [4], in [5] and in [6] was more than 100 µM throughout. Moreover, the TGI in test [7], in [8], in test [9], in test [10], in [11] and in test [12] was more than 100 µM throughout. Also, the TGI in test [13] is more than 100 µM; in test [14] it was more than 100 µM; in [15], 83.8 µM; in test [16], more than 100 µM; in test [17] it was more than 100 µM; in [18] it was more than 100 µM.

As to `O=c1[nH]c2nc3ccccc3c(=O)n2/c1=C/c1ccccc1`, the TGI in test [1], in test [2], in [3], in test [4], in test [5] and in [6] was more than 100 µM throughout. In addition, the TGI in [7], in test [8], in test [9], in test [10], in [11] and in test [12] was more than 100 µM each time. For the same compound, the TGI was 78.5 µM in test [13]; more than 100 µM in test [14]; more than 100 µM in [15]; more than 100 µM in test [16]; more than 100 µM in test [17].

In the case of `NC(=O)N/N=C\CC(O)(C(F)(F)Cl)C(F)(F)Cl`, the TGI in test [1], in test [2], in test [3], in [4], in [5] and in test [6] was more than 10 µM each time. For the same compound, the TGI in [7], in test [8], in test [10], in test [11], in test [12] and in test [13] was more than 10 µM in each case. Besides, the TGI in test [14], in test [15], in [16], in test [17] and in test [18] was more than 10 µM throughout.

Consider `Cn1cc(NC(=O)Nc2cc(C(=O)Nc3cc(C(=O)Nc4ccc5cc(S(=O)(=O)O)cc(S(=O)(=O)O)c5c4)n(C)c3)n(C)c2)cc1C(=O)Nc1cc(C(=O)Nc2ccc3cc(S(=O)(=O)O)cc(S(=O)(=O)O)c3c2)n(C)c1`, for which the TGI in test [1], in test [3], in test [4], in test [5], in test [6] and in [7] was more than 100 µM each time. Moreover, the TGI in test [8], in [9], in test [10], in test [11], in test [12] and in test [13] was more than 100 µM throughout. Also, the TGI in test [14], in [15], in [16], in [17] and in test [18] was more than 100 µM in each case.

In the case of `COC(=O)CN(CC(=O)NCCNC(=O)OC(C)(C)C)C1CCCCC1N(CC(=O)OC)CC(=O)OC` (centres undefined), the TGI in test [1], in test [2], in test [3], in [4], in test [5] and in test [6] was more than 100 µM in each case. Besides, the TGI in test [7], in test [8], in [9], in [10], in test [11] and in test [12] was more than 100 µM throughout. The TGI in [13], in test [14], in test [16], in test [17] and in [18] was more than 100 µM throughout.
